For data set [1] the following is noted: oral administration, multiple myeloma; cited from earlier work.
For data set [2] the following is noted: cited from earlier work; for elimination half-life: intravenous.
For data set [3] the following is noted: previously untreated chronic myelogenous leukemia; cited from earlier work.
For data set [4], the system named is AFB-13 normal human fibroblasts. Nature of the data set: Growth of AFB-13 cells, control for cellular toxicity. It is filed as cell-based. The note with it: Homo sapiens, Fibroblast, 120 h, viable cell count 5 days after plating. Here is the method: (§1) For these assays 2×10^4 cells are plated in 24 well multiwell tissue culture dishes, in 1 ml of DME/F12 media supplemented with 5% fetal bovine serum. After 24 h, media is replaced with fresh media containing the concentration of inhibitor to be tested, or no inhibitor as a control. Cells are counted 1, 3, and 5 days subsequent to addition of inhibitor. For the day 5 counts, media with fresh inhibitor is used to replace spent media after day 3. […] For counting viable cells, cultures are trypsinized, stained with trypan blue, and cell number determined by counting under light microscopy with the use of a hemacytometer. Benzodiazepine derivatives were tested at their maximally soluble concentrations in 0.1% DMSO diluted with tissue culture medium, and serial dilutions were made thereof. Every concentration tested was performed in triplicate, in identical wells under identical assay conditions.

In another data set the target is T1, Csk (C-Src kinase) (Homo sapiens, UniProt P41240).
T1 construct: glutathione-S-transferase (GST) (N); made in house; host or cells: E. coli
T1 sequence (P41240 whole entry): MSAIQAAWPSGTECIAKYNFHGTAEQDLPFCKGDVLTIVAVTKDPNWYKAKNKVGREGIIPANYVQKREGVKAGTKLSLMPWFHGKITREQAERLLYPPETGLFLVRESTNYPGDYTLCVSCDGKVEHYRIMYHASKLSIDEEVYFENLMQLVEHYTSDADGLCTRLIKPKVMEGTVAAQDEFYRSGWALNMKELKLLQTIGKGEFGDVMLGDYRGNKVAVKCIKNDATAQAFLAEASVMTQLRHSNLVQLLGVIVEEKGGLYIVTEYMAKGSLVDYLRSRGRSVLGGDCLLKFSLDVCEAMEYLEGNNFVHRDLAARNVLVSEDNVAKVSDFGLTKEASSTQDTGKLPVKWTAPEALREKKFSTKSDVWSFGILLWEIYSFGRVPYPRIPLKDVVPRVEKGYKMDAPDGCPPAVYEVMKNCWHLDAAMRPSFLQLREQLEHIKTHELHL
Nature of the data set: Csk tyrosine kinase activity, poly E4Y and 32P-ATP. It is filed as biochemical. The source says: (§2) The genes encoding Csk, Lck, Abl, and the FGF receptor have all been cloned. The genes encoding Csk, Abl, and the FGF receptor were cloned from humans, and the genes encoding Lck were cloned from a mouse. Recombinant Csk, Lck, Abl, and the FGFr were expressed as glutathione-S-transferase fusion proteins using the pGEX expression vector and E. coli, and purified as described (Sun et al., 1995).
(§3) Recombinant Src was expressed using the baculovirus-insect cell system and purified as published (Budde et al, 1993). Recombinant Csk, Lck, Abl, and the FGFr were expressed as glutathione-S-transferase fusion proteins using the pGEX expression vector and E. coli, and purified as described (Sun and Budde, 1995).
(§4) The tyrosine kinase activity of Src, Lck (p56^lck), Csk (C-Src kinase), Abl (Bcr-Abl catalytic domain), and the FGFr (fibroblast growth factor receptor catalytic domain), was determined using poly E4 Y and ^32 P-ATP.

The target of a further data set is protein kinase A (PKA) (Homo sapiens, UniProt P17612). Nature of the data set: Enzyme panel: protein kinase A. The data set is classed as biochemical.
Data set [5] addresses T2, Src (Homo sapiens, UniProt P12931).
T2 construct: made in house; host or cells: baculovirus-insect cell system
Nature of the data set: Src tyrosine kinase activity, poly E4Y and 32P-ATP. The data set is classed as biochemical. Here is the method: The compounds within the library were screened at a concentration of 100 μM using the following assay procedure. A 10 μL aliquot of poly(Glu:Tyr, 4:1) to final concentration of 200 μg/mL, 20 μL of benzodiazepine to be tested, 10 μL of purified Src and 10 μL of [gamma-^32 P]-ATP-MgCl2 cocktail (final concentration of 0.2 mM ATP; specific activity of 600 dpm/pmol, and 6 mM MgCl2) were mixed and incubated in 0.5 mL test tubes at ambient temperature. After 30 min, a 35 μL aliquot was spotted onto a 1×1 inch 3 MM filter paper and dropped into a 5% TCA bath at 60° C. The filter papers were washed 3 times with 5% TCA and air dried. The filter papers were then placed into a vial, 3 mL scintillation cocktail added, and analyzed by liquid scintillation counting.
as §4

The test system of data set [6] is HT-29 colon adenocarcinoma cells. The data set can be described thus: Growth of HT-29 cells, viable cell count. The data set is classed as cell-based, human. The note with it: viable cell count 5 days after plating. Here is the method: as §1
A further data set addresses T3, Lck (p56^lck) (Mus musculus, UniProt P06240).
T3 construct: glutathione-S-transferase (GST) (N); made in house; host or cells: E. coli
The data set can be described thus: Lck tyrosine kinase activity, poly E4Y and 32P-ATP. It is filed as biochemical.
From the text: as §2, §3, §4

In data set [7] the target is FGFr (fibroblast growth factor receptor catalytic domain). Nature of the data set: FGFr tyrosine kinase activity, poly E4Y and 32P-ATP. It is filed as biochemical, human.
From the text: as §2, §3, §4

Data set [8] relates to HT-29 colon adenocarcinoma cells. The data set can be described thus: Anchorage-independent growth, soft agar colony formation. The data set is classed as cell-based, human. The note with it: Homo sapiens, HT-29, 336 h, colonies ≥100 cells 14 days after plating. How it is done:
Soft agar colony formation is used to determine anchorage independent growth, an in vitro parameter which correlates well with tumorigenicity of HT 29 cells. (AFB-13 cells are unable to form soft agar colonies, a characteristic of normal cells). These assays are performed in 6 well ([…]) multiwell tissue culture dishes. The wells are underlayed with 1% low melting agarose in complete growth media, and refrigerated for 15 min. 1×10^3 HT 29 cells are then added to the wells in complete media in 0.5% low melting agarose. […] After a 24 h incubation period, 0.5 mL of media containing compound to be tested (or media alone as a control) is added to the dish. During the assay, media with or without the test compound is replenished every 3 days. Colonies estimated to contain >100 cells are counted after 14 days. For compounds that induce growth inhibition, the assay is continued to 28 days to assure that differences in colony forming ability were not due to altered growth rate of cells. For initial screening, assays are performed in duplicate for each compound to be tested, due to the large amount of inhibitor required for the length of the study.

For data set [9] the following is noted: cited from earlier work.
The conditions of data set [10]: human, in vivo; cited from earlier work.
Data set [11] addresses Src. The note with it: Table 10, published peptides as inhibitors of Src; cited from earlier work.

The text below walks through data of patent publication US6100254A, “Inhibitors of protein tyrosine kinases” (Board of Regents, The University of Texas System, priority 1997, dated 2000).

In general, IC50 refers to the concentration that inhibits the measured activity by half. Read a low IC50 as inhibition by little substance. For orientation: Ki means a measure of affinity in units of concentration, obtained from inhibition or displacement.

Where a name gives a salt, the structure may show the parent alone. *1 amine or outer side, *2 acyl side, *3 side chain or, on linkers, in order; H or OH if unused. Where a SMILES comes first, the peptide text is derived from it. Bridges are numbered along the chain shown (N, C = ends). Roman numbers before positions name the chains, in order. [ ]: non-standard residue; d: D form. Actinocin(9to1) = Cc1c2oc3c(C)ccc(C(=O)[*:1])c3nc-2c(C(=O)[*:2])c(N)c1=O; NMeV = CN[C@H](C(=O)O)C(C)C; Sar = CNCC(=O)O A value given as a limit tells only on which side of the number the result lay.

T2 sequence (P12931 whole entry, species assumed): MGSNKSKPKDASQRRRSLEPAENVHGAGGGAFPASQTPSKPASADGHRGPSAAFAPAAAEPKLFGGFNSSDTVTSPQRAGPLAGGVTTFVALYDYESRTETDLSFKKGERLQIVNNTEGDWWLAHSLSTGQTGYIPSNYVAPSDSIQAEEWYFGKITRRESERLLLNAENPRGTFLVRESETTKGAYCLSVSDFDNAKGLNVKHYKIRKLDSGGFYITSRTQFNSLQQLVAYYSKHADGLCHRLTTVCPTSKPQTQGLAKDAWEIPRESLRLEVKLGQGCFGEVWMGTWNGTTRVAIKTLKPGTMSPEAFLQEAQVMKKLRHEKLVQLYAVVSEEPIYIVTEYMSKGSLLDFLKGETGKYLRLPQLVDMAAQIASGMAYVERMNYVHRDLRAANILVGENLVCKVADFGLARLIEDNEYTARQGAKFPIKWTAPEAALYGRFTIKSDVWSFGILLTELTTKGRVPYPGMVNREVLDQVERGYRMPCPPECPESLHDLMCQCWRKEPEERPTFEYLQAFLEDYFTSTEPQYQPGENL
T3 sequence (P06240 whole entry): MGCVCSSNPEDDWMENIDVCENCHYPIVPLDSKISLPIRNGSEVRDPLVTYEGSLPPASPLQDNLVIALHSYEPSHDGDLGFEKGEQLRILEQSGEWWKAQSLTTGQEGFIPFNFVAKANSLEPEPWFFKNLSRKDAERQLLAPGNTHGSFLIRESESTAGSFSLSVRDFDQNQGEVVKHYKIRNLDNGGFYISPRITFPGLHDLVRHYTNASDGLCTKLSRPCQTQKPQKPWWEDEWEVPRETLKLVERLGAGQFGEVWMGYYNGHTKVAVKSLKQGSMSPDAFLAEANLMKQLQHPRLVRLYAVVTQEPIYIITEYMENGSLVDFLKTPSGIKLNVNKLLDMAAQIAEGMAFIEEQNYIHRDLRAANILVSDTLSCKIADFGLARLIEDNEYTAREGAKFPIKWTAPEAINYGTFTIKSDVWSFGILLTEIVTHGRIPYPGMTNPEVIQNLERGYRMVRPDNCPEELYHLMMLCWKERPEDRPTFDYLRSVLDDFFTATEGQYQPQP

Turning to “4-[bis(2-chloroethyl)amino]-L-phenylalanine [Melphalan]”, the “patients showing a favorable response” value in [1] is on record as “one third to one half”.

`Cc1c2oc3c(C)ccc(C(=O)N[C@@H]4C(=O)N[C@H](C(C)C)C(=O)N5CCC[C@H]5C(=O)N(C)CC(=O)N(C)[C@@H](C(C)C)C(=O)O[C@@H]4C)c3nc-2c(C(=O)N[C@@H]2C(=O)N[C@H](C(C)C)C(=O)N3CCC[C@H]3C(=O)N(C)CC(=O)N(C)[C@@H](C(C)C)C(=O)O[C@@H]2C)c(N)c1=O` [Actinomycin D] (I: T[dV]P[Sar][NMeV] / II: T[dV]P[Sar][NMeV]; ester I:1-I:C, II:1-II:C; linker I:N-II:N via Actinocin(9to1)): in [2] (in vivo), the “dose excreted intact into the bile” value is “Half” and the “passage of the blood-brain barrier” value is reported as “does not pass the blood-brain barrier”.

For the molecule `CS(=O)(=O)OCCCCOS(C)(=O)=O` [Busulfan, 1,4-butanediol dimethanesulfonate], the “adults obtaining hematologic remission” value in data set [3] is recorded as “Approximately 90%”.

For the molecule `O=C(O)CCCc1ccc(N(CCCl)CCCl)cc1` [Chlorambucil, 4-[bis(2-chlorethyl)amino]benzenebutanoic acid], the “terminal half-life of the parent drug” value in data set [2] (single oral doses of 0.6-[…]) was 1.5 h.

For the molecule `N.N.[Cl][Pt][Cl]` [Cisplatin], the oral absorption result in data set [2] (in vivo) is “not absorbed orally”.

Take `O=C1[C@@H](Cc2ccc(O)cc2)N=C(c2ccc(O)cc2)c2cc(Cl)ccc2N1Cc1ccc(-c2ccccc2)cc1` [D-Tyr,BnzPh, 7-chloro-1,3-dihydro-1-(-4-biphenylmethyl)-3-(-4-hydroxyphenylmethyl)-5-(4-hydroxyphenyl)-(2H)1,4-benzodiazepin-2-one]: the activity at 3 µM in data set [4] (3 μM) came to 89 ± 6%; in data set [6] (Homo sapiens, HT-29, 120 h, 3 μM) it was 94 ± 9%; in data set [8] (3 μM) it was 94%. For the same molecule, the activity at 16 µM in [4] (16 μM) was 100 ± 4%; in data set [6] (Homo sapiens, HT-29, 120 h, 16 μM) it was 74 ± 5%; in data set [8] (16 μM) it was 90%. Besides, the activity at 32 µM was 100 ± 7% in data set [4] (32 μM) and 100% in data set [8] (32 μM). In addition, the IC50 turned out to be 404 µM at Csk (C-Src kinase); 54 µM on protein kinase A (PKA); 97 µM against Src [5]; 640 µM at Lck (p56^lck); 335 µM in [7]. At Src [5] (Table 10, benzodiazepines as inhibitors of Src), the Ki was determined as 43 µM. Moreover, in [6] (32 μM), the “HT-29 Growth” value is recorded as “cytotoxic”.

In the case of `COc1cccc2c1C(=O)c1c(O)c3c(c(O)c1C2=O)C[C@@](O)(C(C)=O)C[C@@H]3O[C@H]1C[C@H](N)[C@H](O)[C@H](C)O1` [Daunorubicin, 5,12-Naphthacenedione, (8S-cis)-8-acetyl-10-[(3-amino-2,3,6-trideoxy-α-L-lyxo-hexanopyranosyl)oxy]-7,8,9,10-tetrahydro-6,8,11-trihydroxy-10-methoxy-, hydrochloride], the oral absorption result in data set [2] (in vivo) was “poor”. Besides, the elimination half-life entry in data set [2] is “about 19 hr”.

Take `COc1cccc2c1C(=O)c1c(O)c3c(c(O)c1C2=O)C[C@@](O)(C(=O)CO)C[C@@H]3O[C@H]1C[C@H](N)[C@H](O)[C@H](C)O1` [Doxorubicin, 5,12-Naphthacenedione, (8s-cis)-10-[(3-amino-2,3,6-trideoxy-α-L-lyxo-hexopyranosyl)oxy]-7,8,9,10-tetrahydro-6,8,11-trihydroxy-8-(hydroxyacetyl)-1-methoxy-hydrochloride]: in data set [2] (in vivo), the oral absorption result is recorded as “absorbed poorly” and the “secreted into the bile” value is recorded as “Forty to 50”. Also, the elimination half-life result in [2] was “about 30 hr”.

Regarding `O=NN(CCCl)C(=O)NC1CCCCC1` [Lomustine, 1-(2-chloro-ethyl)-3-cyclohexyl-1 nitrosourea], the “radioactivity excreted as degradation products within 24 hours” value in [2] (oral radioactive drug, 30 mg/m^2 to 100 mg/m^2) is listed as “about half”. For the same molecule, in [9] (absolute alcohol), the “solubility in absolute alcohol” value is listed as 70 mg per ml. Further, the solubility in water in data set [9] (water) is reported as under 0.05 mg per ml.

In the case of `CO[C@@]12[C@H](COC(N)=O)C3=C(C(=O)C(C)=C(N)C3=O)N1C[C@@H]1N[C@@H]12` [Mitomycin], the “dose excreted unchanged in the urine” value in data set [10] was “Approximately 10%”.

As to DRVYVHPF, the Ki on Src [11] was 3100 µM.

In the case of EEIYGEFE, at Src [11], the Ki is 70 µM.

For EFEYAFF, at Src [11], the Ki is 130 µM.

For KKSRGDYMTMQIG, the Ki on Src [11] is 200 µM.

As for RDRVYVHPF, the Ki at Src [11] is 2600 µM.

RRLIEDAEYAARG: on Src [11], the Ki was 10000 µM.

Turning to YIYGSFK, the Ki on Src [11] is 1600 µM.
